Read-outs that look alike come from different tables or passages of the source.
How the values were obtained:
WM115 cells = assay: WM115 melanoma cell viability; type: cell-based, human; conditions: WM115 cells
Method: (§1) Cell lines. Mouse melanoma (SW1) and human melanoma (LU1205) cells were maintained in DMEM supplemented with 10% FBS, L-glutamine and antibiotics. The human melanoma cell lines MEWO and WM115 were maintained in RPMI supplemented with 10% FBS and antibiotics. Primary mouse melanocytes were cultured in F-12 media supplemented with 10% FBS, antibiotics, IBMX (isobuthyl-methylxantine), bovine pituitary extract, and TPA.
(§2) Mitochondrial activity and apoptosis. Cells were exposed to the chemicals for 12-48 hours as indicated in Results. To measure changes in mitochondrial activity reflective of general cell viability, the ATPLITE ATP detection assay was used according to the manufacturer's recommendations (Perkin Elmer). Apoptosis analysis was performed by flow cytometry of PI-stained cells. The percentage of cells to the left of the diploid G0/1 peak, characteristic of hypodiploid cells that have partially lost DNA, was calculated as percentage of apoptotic cells (Bhoumik et al., PNAS 101:4222-7, 2004). Analysis of changes in Caspase 8 expression pattern was performed using immunoblot analysis.
The effects of CSL and AIGA on the human melanoma cell lines WM115 and MEWO were assessed. AIGA reduced the viability of the human melanoma cultures when added at a concentration of 0.5-2 μM (FIG. 5a and FIG. 5c) whereas CSL reduced their viability at a concentration of 0.1 μM-2 μM in WM115 cells (FIG. 5b) and 0.05 μM-2 μM in MeWO cells (FIG. 5d).

normal mouse melanocytes = assay: Normal melanocyte viability, ATPLITE; type: cell-based; conditions: 0.1 μM, 20 h
Method: as §1, §2
Characterization of CSL and AIGA effects on mouse melanoma cells. The structures of AIGA and CSL are depicted in FIGS. 1a and 1b. […] ATP levels were used as an indicator of cell viability and were measured using the ATPLITE ATP detection assay kit. […]

[1] = test system: human diploid fibroblasts (IMR90); assay: Toxicity on human diploid fibroblasts; type: cell-based
Method: Characterization of CSL and AIGA effects on mouse melanoma cells. The structures of AIGA and CSL are depicted in FIGS. 1a and 1b. AIGA was tested for cytotoxicity at concentrations ranging between 0.1 and 2 μM, whereas CSL was used at a concentration of 0.01 to 0.3 μM. SW1 cells or normal melanocytes were seeded on 96 well plates and 24 h late, cells were treated with the indicated concentrations of ATF2 50-100 peptide, AIGA, or CSL for 20 h. ATF2 50-100 peptide (cloned in mammalian expression vector in frame with penetratin was transfected with the aid of lipofectamine) was used as a positive control. ATP levels were used as an indicator of cell viability and were measured using the ATPLITE ATP detection assay kit. The number of surviving cells upon AIGA treatment was normalized to the number of surviving cells under the control treatment, and the normalized number was designated as the “% Viability.” Results shown in FIGS. 1c-1f represent 3 experiments. Treatment of SW1 melanoma cells with 1 μM of AIGA reduced the viability of melanoma cells to 10%, (FIG. 1c). Treatment of the SW1 cells with 0.05 μM of CSL reduced the viability of melanoma cells to 50%, and 0.1 μM reduced it to 10% (FIG. 1d). […] Normal melanocytes and fibroblasts were used as a control.

[2] = test system: normal human breast cultures MCF10; assay: Toxicity on normal human breast cultures; type: cell-based
[3] = test system: ATF2 transcriptional activity; assay: Jun2-luciferase reporter assay in SW1 cells; type: cell-based; conditions: Mus musculus, Jun2-Luc, 8 h, read-out: concentration required to cause about 50% inhibition of ATF2 transcriptional activity
Method: (§3) Constructs and inhibitors. An ATF2 peptide (aa 51-100) was cloned into HA-tagged pcDNA3 vector as previously described (Bhoumik et al., Cancer Res 64:8222-30, 2004). 5×Jun2tk-Luc (marker for ATF2 transcriptional activities), 5×TRE-tk-Luc (marker for AP1/c-Jun transcriptional activities) and 2×NF-B-Luc were previously described (Bhoumik et al., J Clin Invest 110:643-50, 2002). Pharmacological inhibitor of JNK (SP600125) was purchased (EMD biosciences) and added (5 μM) to cultured cells as indicated in Results.
(§4) Transcriptional analysis. Transient transfection of different reporter constructs into melanoma cells was performed using LIPOFECTAMINE PLUS transfection reagent (Invitrogen). Luciferase activity was determined as previously described (Bhoumik et al., PNAS 101:4222-7, 2004).
These compounds were next assessed for their impact on ATF2 transcriptional activity. The effect of AIGA on ATF2 transcriptional activities was measured by the Jun2-luciferase assay. SW1 cells were transfected with the Jun2-luciferase plasmid and 24 h later cells were treated with the indicated concentrations of AIGA or CSL for 8 h before proteins were prepared and level of luciferase activity was measured. ATF2 51-100 peptide was used as a positive control. Data shown represent results from 3 experiments. […]

[4] = test system: NF-κB transcriptional activity; assay: 2-NFκ-B-luciferase reporter assay in SW1 cells; type: cell-based, mouse; conditions: 8 h
Method: as §3, §4
To assess whether CSL may affect the transcriptional activities of genes other than ATF2 and c-Jun, possible changes in transcriptional activities of NF-κB were monitored. Transcriptional activation of NFκ-B was assessed using the 2-NFκ-B-luciferase assay. Briefly, SW1 cells were transfected with the 2-NFκ-B-luciferase plasmid and 24 h later, cells were treated with the indicated concentrations of AIGA or CSL for 8 h before proteins were prepared and level of luciferase activity was measured. ATF250-100 peptide was used as a positive control. Data shown represent results from 2 experiments. […]

phosphorylation of c-Jun = assay: Western blot for c-Jun phosphorylation in SW1 cells; type: cell-based, mouse; conditions: AIGA 0.5 or 2.0 μM, CSL 0.5 or 1.0 μM, 20 h
Method: Immunoblot analysis. Proteins prepared from cells at the indicated time points using RIPA buffer and 75 μg were separated on SDS-PAGE followed by immunoblot analysis using the antibodies indicated. Antibodies used were as follows: anti-JNK (Santa Cruz), phospho-JNK (Promega Corp.; Madison, Wis.), phospho c-Jun (Cell Signaling Technology, Inc.; Danvers, Mass.), c-Jun (Santa Cruz Biotechnology, Inc.; Santa Cruz, Calif.) and Caspase 8 (BD Biosciences; San Jose, Calif.).
The activation of JNK by both compounds was confirmed upon analysis of its substrate c-Jun. SW1 cells were pretreated with the JNK inhibitor SP600125 followed by addition of AIGA (0.5 μM or 2.0 μM) or CSL (0.5 μM or 1.0 μM) for 20 h. Total protein extracts were used to determine the phosphorylation of c-Jun.

| Structure (SMILES) | concentration at which viability was reduced (WM115 cells) [µM] | toxicity on normal mouse melanocytes (normal mouse melanocytes) [%] | toxic effect on human diploid fibroblasts (IMR90) [1] | toxic effect on normal human breast cultures MCF10 [2] | IC50 [3] [nM] | NF-κB transcriptional activity [4] | c-Jun phosphorylation (phosphorylation of c-Jun) | toxic effect on human diploid fibroblasts (IMR90) ([1]; data not shown) | toxic effect on normal human breast cultures MCF10 ([2]; data not shown) |
| --- | --- | --- | --- | --- | --- | --- | --- | --- | --- |
| CC(=O)Oc1c2c(c(CC=C(C)C)c3c1C(=O)C1=C[C@@H]4CC5C(C)(C)OC(C/C=C(\C)C(=O)O)(C4=O)[C@@]15O3)OC(C)(CCC=C(C)C)C=C2 (stereo partly shown) [AIGA, Acetyl isogambogic acid] | 0.5 to 2 | 40 | Neither CSL nor AIGA elicited toxic effect | Neither CSL nor AIGA elicited toxic effect | ~500 | dose-dependent inhibition | efficiently induced c-Jun phosphorylation |  |  |
| CC1=C(O)C(=O)C=C2C1=CC=C1[C@@]2(C)CC[C@@]2(C)[C@@H]3C[C@](C)(C(=O)O)CC[C@]3(C)CC[C@]12C [Celastrol] |  | 10 |  |  | ~50 | dose-dependent inhibition | efficiently induced c-Jun phosphorylation, with CSL being more potent | Neither CSL nor AIGA elicited toxic effect | Neither CSL nor AIGA elicited toxic effect |
